pIC50: −log10 of the molar value.
Legend:
[1] = test system: gelatin degradation in cancer tissue (human lung cancer cell line Ma44); experiment: In situ zymography of tumor mass from Ma44-bearing nude mice after oral administration; type: in vivo; conditions: for inhibition of the gelatin degradation: nude mice; for Quantitative analysis using Optimas Ver.6: vehicle 53.4; for Quantitative analysis using Optimas Ver.6 (brightness in each tissue/size in each tissue): 200 mg/kg orally, two hours after administration, vehicle 49.2
Description: Fifteen g of acid-treated swine cutis gelatin was dissolved in 123 g of pure water, and the solution was added with 1.2 ml of 1,2-bis(vinylsulfonylacetamido)ethane (4%) as a hardening agent. The solution was uniformly applied to a polyethylene terephthalate film undercoated with gelatin so as to obtain a dried membrane having a thickness of about 7 μm, and the membrane was dried to obtain a gelatin thin membrane. The gelatin thin membrane was stored at room temperature until the use.
Human lung cancer cell line Ma44 (CANCER RESEARCH 59, 1231-35 (1999)) that was known to produce MMP-2 in a large amount was used. Nude mice (six weeks aged, female, CLEA Japan, Inc.) were transplanted intraperitoneally with 1×10^5 Ma44 cells, and, 14 days later, BPHA or (−)BPHA was administered orally to the animals at 200 mg/kg. As control, a vehicle (a physiological saline containing 0.4% Tween80, 0.5% carboxymethyl cellulose, and 0.9% benzyl alcohol) was similarly administered. Two hours after the administration, the cancer-bearing mice were autopsied to remove the tumor mass formed at the abdominal wall and the mesenterium, and the mass was subjected to the in situ zymography experiment.
The tumor mass was embedded in OCT Compound (SAKURA), and then Microtone/Cryostat TISSUE TEK II (Miles-Sankyo) was used to prepare […] having a thickness of 8 μm. The […] were placed gently onto the gelatin thin membrane previously prepared to give samples, and then the membranes were placed into a humid bath to prevent them from drying, followed by leaving the membranes to stand in an incubator at 37° C. After reacted for 3.5 hours, the thin membranes were taken out, and stained with a 1% Amido Black solution (Wako Pure Chemical Industries) for 15 minutes. Subsequently, the membranes were treated with a decolorizing solution (70% methanol, 10% acetic acid) for 10 minutes.
The cancer tissue on the thin membrane was observed under light microscopy to determine the area where the gelatin degradation was recognized. Additionally, the slide scanner (Nikon 35 mm film scanner: COOLSCAN II) was used to analyze quantitatively the tone with the software Optimas Ver.6 (Optimas Corporation).
was orally administered at dosages of 0.2, 2.0, 20.0, and 200.0 mg/kg in stead of the administrations of BPHA and (−)BPHA, treatments were conducted for in situ zymography.

MMP-2 = target: T1, MMP-2 (Homo sapiens, UniProt P08253); experiment: MMP inhibitory activity IC50, MMP-2; type: biochemical
T1 sequence (P08253 110-660): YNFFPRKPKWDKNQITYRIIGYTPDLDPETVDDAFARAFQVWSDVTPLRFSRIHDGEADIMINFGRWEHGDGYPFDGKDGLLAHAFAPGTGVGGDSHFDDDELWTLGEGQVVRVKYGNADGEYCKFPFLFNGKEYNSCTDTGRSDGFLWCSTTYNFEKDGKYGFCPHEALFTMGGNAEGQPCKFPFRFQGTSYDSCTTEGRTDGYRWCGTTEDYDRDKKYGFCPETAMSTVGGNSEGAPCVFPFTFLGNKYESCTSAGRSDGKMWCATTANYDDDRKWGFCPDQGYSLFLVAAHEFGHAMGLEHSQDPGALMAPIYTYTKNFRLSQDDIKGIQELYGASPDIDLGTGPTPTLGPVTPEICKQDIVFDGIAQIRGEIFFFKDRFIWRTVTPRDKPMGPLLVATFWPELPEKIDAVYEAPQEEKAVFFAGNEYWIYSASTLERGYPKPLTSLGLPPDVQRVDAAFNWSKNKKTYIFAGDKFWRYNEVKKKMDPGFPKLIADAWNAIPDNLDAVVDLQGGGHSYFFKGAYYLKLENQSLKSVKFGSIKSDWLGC

MMP-14 = MMP-14 (Homo sapiens, UniProt P50281); experiment: MMP inhibitory activity IC50, MMP-14; type: biochemical
MMP-3 = MMP-3 (Homo sapiens, UniProt P08254); experiment: MMP inhibitory activity IC50, MMP-3; type: biochemical
MMP-7 = target: T2, MMP-7 (Homo sapiens, UniProt P09237); experiment: MMP inhibitory activity IC50, MMP-7; type: biochemical
T2 sequence (P09237 95-267): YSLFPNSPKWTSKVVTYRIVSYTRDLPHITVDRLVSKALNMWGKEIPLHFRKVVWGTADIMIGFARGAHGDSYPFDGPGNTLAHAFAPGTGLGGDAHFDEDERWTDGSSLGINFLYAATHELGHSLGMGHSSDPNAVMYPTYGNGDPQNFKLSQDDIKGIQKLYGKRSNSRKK

MMP-9 = MMP-9 (Homo sapiens, UniProt P14780); experiment: MMP inhibitory activity IC50, MMP-9; type: biochemical
MMP-1 = target: T3, MMP-1 (Homo sapiens, UniProt P03956); experiment: MMP inhibitory activity IC50, MMP-1; type: biochemical
T3 sequence (P03956 100-469): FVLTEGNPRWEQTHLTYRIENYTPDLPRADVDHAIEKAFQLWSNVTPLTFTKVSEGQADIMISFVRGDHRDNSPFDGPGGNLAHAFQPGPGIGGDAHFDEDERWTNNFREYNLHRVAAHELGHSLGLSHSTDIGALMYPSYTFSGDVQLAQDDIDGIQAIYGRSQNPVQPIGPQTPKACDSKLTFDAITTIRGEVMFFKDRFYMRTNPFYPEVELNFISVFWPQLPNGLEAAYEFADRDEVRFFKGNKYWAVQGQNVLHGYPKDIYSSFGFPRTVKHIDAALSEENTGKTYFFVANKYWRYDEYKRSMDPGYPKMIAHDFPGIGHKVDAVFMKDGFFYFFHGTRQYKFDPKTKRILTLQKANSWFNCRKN

Sequence of MMP-3 (P08254 100-477, species assumed): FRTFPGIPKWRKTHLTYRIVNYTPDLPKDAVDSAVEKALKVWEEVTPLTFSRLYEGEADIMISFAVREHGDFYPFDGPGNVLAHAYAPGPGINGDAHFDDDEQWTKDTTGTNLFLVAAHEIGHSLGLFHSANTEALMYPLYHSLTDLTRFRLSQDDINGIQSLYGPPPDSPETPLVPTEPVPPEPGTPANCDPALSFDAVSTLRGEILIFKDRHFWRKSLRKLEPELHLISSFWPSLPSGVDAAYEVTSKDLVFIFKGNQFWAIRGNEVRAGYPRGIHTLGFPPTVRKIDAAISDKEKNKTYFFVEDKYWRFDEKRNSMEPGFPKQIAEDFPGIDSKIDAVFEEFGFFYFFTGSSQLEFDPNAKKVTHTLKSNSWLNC
Sequence of MMP-9 (P14780 94-707, species assumed): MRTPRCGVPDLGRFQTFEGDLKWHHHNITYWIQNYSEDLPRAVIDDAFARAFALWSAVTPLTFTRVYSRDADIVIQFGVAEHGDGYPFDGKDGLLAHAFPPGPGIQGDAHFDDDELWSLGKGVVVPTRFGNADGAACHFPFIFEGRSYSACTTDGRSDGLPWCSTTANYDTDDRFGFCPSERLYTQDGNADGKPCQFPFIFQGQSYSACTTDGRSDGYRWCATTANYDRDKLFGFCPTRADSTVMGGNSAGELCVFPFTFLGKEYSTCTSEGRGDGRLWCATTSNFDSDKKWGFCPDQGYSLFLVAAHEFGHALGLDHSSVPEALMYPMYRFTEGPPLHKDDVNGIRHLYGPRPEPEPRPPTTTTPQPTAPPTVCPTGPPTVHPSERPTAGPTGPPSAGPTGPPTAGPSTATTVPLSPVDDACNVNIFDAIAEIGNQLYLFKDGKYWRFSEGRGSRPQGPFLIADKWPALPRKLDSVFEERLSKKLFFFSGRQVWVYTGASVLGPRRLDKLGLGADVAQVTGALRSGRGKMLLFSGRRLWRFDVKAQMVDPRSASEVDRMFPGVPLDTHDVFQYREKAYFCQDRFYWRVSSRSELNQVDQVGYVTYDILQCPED

pIC50 (MMP-2) | pIC50 (MMP-14) | pIC50 (MMP-3) | pIC50 (MMP-7) | pIC50 (MMP-9) | pIC50 (MMP-1) | SMILES | inhibition of the gelatin degradation ([1]; 0.2 mg/kg orally) | Quantitative analysis using Optimas Ver.6 ([1]; 0.2 mg/kg orally) | Quantitative analysis using Optimas Ver.6 ([1]; 2.0 mg/kg orally) | Quantitative analysis using Optimas Ver.6 ([1]; 20.0 mg/kg orally) | inhibition of the gelatin degradation ([1]; 200.0 mg/kg orally) | Quantitative analysis using Optimas Ver.6 ([1]; 200.0 mg/kg orally) | inhibition of the gelatin degradation ([1]; 20.0 to 2.0 mg/kg orally) | Quantitative analysis using Optimas Ver.6 (brightness in each tissue/size in each tissue) [1]
 |  |  |  |  |  | O=C(O)[C@@H](Cc1c[nH]c2ccccc12)NS(=O)(=O)c1ccc(-c2nnn(-c3ccccc3)n2)cc1 [MMI-166] | merely partial inhibition | 41.3 | 28.6 | 13.7 | complete inhibition of the gelatin degradation | 5.3 | the inhibition was lowered in sequence | 
7.92 | 7.77 | < 6.00 | 6.10 | 7.80 | 6.01 | O=C(NO)[C@@H](Cc1ccccc1)NS(=O)(=O)c1ccc(-c2ccccc2)cc1 [BPHA] |  |  |  |  |  |  |  | 8.6
< 6.00 | < 6.00 | < 6.00 | < 6.00 | < 6.00 | < 6.00 | O=C(NO)[C@H](Cc1ccccc1)NS(=O)(=O)c1ccc(-c2ccccc2)cc1 [(−)BPHA] |  |  |  |  |  |  |  | 40.1

From patent US6627411B2, “Method for evaluating matrix metalloprotease inhibitory activity” (Shionogi & Co., Ltd., priority 1999, dated 2003)
